Experimental data: patent US12077503B2, “Substituted cyclic amides and their use as herbicides” (FMC CORPORATION, priority 2015, dated 2024)

Legend:
Assay type in all cases: in vivo
[1] = tested on: barnyardgrass (Echinochloa crus-galli); experiment: Test G Pre-Emergence Protocol; conditions: Echinochloa crus-galli, pre-emergence, 312 h, evaluated after 13 days; for pest or weed control at 15.625 g/ha: 15.625 g ai/ha, read-out: Barnyard grass damage rating (100=total damage to plant; 0=no damage to plant); for pest or weed control at 62.5 g/ha: 62.5 g ai/ha, 100=total damage to plant, 0=no damage to plant, read-out: plant damage rating, Barnyardgrass; for pest or weed control at 250 g/ha: 250 g ai/ha, read-out: Barnyardgrass damage rating (100=total damage to plant; 0=no damage to plant)
Outline: (§1)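 Visual injury (0–100) at day 13 after a single pre-emergence spray. Rates: 15.625, 62.5, 250 g/ha in acetone–water 50:50 with 0.5% Tween 20. Growth conditions: 24/16° C, 14 h light, 65% humidity.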

corn (Zea mays) [2] = experiment: Test G Pre-Emergence Protocol; conditions: Zea mays, pre-emergence, 312 h, evaluated after 13 days; for plant injury at 15.625 g/ha: 15.625 g ai/ha; for plant injury at 15.625 g/ha / plant injury at 250 g/ha: read-out: Corn damage rating (100=total damage to plant; 0=no damage to plant); for plant injury at 62.5 g/ha: 62.5 g ai/ha, 100=total damage to plant, 0=no damage to plant, read-out: plant damage rating, Corn; for plant injury at 250 g/ha: 250 g ai/ha
Outline: as §1

[3] = tested on: giant foxtail (Setaria faberi); experiment: Test G Pre-Emergence Protocol; conditions: Setaria faberi, pre-emergence, 312 h, evaluated after 13 days; for pest or weed control at 15.625 g/ha: 15.625 g ai/ha; for pest or weed control at 15.625 g/ha / pest or weed control at 250 g/ha: read-out: Foxtail, Giant damage rating (100=total damage to plant; 0=no damage to plant); for pest or weed control at 62.5 g/ha: 62.5 g ai/ha, 100=total damage to plant, 0=no damage to plant, read-out: plant damage rating, Foxtail, Giant; for pest or weed control at 250 g/ha: 250 g ai/ha
Outline: as §1

[4] = tested on: ivy-leaved morning glory (Ipomoea hederacea); experiment: Test G Pre-Emergence Protocol; conditions: Ipomoea, pre-emergence, 312 h, evaluated after 13 days; for pest or weed control at 15.625 g/ha: 15.625 g ai/ha, read-out: Morning-glory, Ivy-leaved damage rating (100=total damage to plant; 0=no damage to plant); for pest or weed control at 62.5 g/ha: 62.5 g ai/ha, 100=total damage to plant, 0=no damage to plant, read-out: plant damage rating, Morningglory, Ivy-leaved; for pest or weed control at 250 g/ha: 250 g ai/ha, read-out: Morningglory, Ivy-leaved damage rating (100=total damage to plant; 0=no damage to plant)
Outline: as §1

[5] = tested on: redroot pigweed (Amaranthus retroflexus); experiment: Test G Pre-Emergence Protocol; conditions: Amaranthus retroflexus, pre-emergence, 312 h, evaluated after 13 days; for pest or weed control at 15.625 g/ha: 15.625 g ai/ha; for pest or weed control at 15.625 g/ha / pest or weed control at 250 g/ha: read-out: Pigweed, Redroot damage rating (100=total damage to plant; 0=no damage to plant); for pest or weed control at 62.5 g/ha: 62.5 g ai/ha, 100=total damage to plant, 0=no damage to plant, read-out: plant damage rating, Pigweed, Redroot; for pest or weed control at 250 g/ha: 250 g ai/ha
Outline: as §1

[6] = tested on: velvetleaf (Abutilon theophrasti); experiment: Test G Pre-Emergence Protocol; conditions: Abutilon theophrasti, pre-emergence, 312 h, evaluated after 13 days; for pest or weed control at 15.625 g/ha: 15.625 g ai/ha; for pest or weed control at 15.625 g/ha / pest or weed control at 250 g/ha: read-out: Velvetleaf damage rating (100=total damage to plant; 0=no damage to plant); for pest or weed control at 62.5 g/ha: 62.5 g ai/ha, 100=total damage to plant, 0=no damage to plant, read-out: plant damage rating, Velvetleaf; for pest or weed control at 250 g/ha: 250 g ai/ha
Outline: as §1

[7] = tested on: barnyardgrass (Echinochloa crus-galli); experiment: Test G Post-Emergence Protocol; conditions: Echinochloa crus-galli, post-emergence, 312 h; for pest or weed control at 15.625 g/ha: 15.625 g ai/ha, evaluated after 13 days (100=total damage to plant; 0=no damage to plant), read-out: Barnyardgrass damage rating; for pest or weed control at 62.5 g/ha: 62.5 g ai/ha, read-out: Barnyardgrass damage rating (100=total damage to plant; 0=no damage to plant); for pest or weed control at 62.5 g/ha / pest or weed control at 250 g/ha: evaluated after 13 days; for pest or weed control at 250 g/ha: 250 g ai/ha, read-out: damage to plant, Barnyardgrass (100=total damage to plant; 0=no damage to plant)
Outline: (§2)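 Pot-grown seedlings, 8 days old, raised in a glasshouse at 24/16 °C day/night with 14 h light and 65% humidity, were sprayed post-emergence with test compound in acetone/water (50:50) plus 0.5% Tween 20 at 15.625, 62.5 or 250 g/ha. Damage was scored visually 13 days later on a 0–100 scale (100 = total damage).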

corn (Zea mays) [8] = experiment: Test G Post-Emergence Protocol; conditions: Zea mays, post-emergence, 312 h; for plant injury at 15.625 g/ha: 15.625 g ai/ha, evaluated after 13 days (100=total damage to plant; 0=no damage to plant), read-out: Corn damage rating; for plant injury at 62.5 g/ha: 62.5 g ai/ha, read-out: Corn damage rating (100=total damage to plant; 0=no damage to plant); for plant injury at 62.5 g/ha / plant injury at 250 g/ha: evaluated after 13 days; for plant injury at 250 g/ha: 250 g ai/ha, read-out: damage to plant, Corn (100=total damage to plant; 0=no damage to plant)
Outline: as §2

[9] = tested on: giant foxtail (Setaria faberi); experiment: Test G Post-Emergence Protocol; conditions: Setaria faberi, post-emergence, 312 h; for pest or weed control at 15.625 g/ha: 15.625 g ai/ha, evaluated after 13 days (100=total damage to plant; 0=no damage to plant), read-out: Foxtail, Giant damage rating; for pest or weed control at 62.5 g/ha: 62.5 g ai/ha, read-out: Foxtail, Giant damage rating (100=total damage to plant; 0=no damage to plant); for pest or weed control at 62.5 g/ha / pest or weed control at 250 g/ha: evaluated after 13 days; for pest or weed control at 250 g/ha: 250 g ai/ha, read-out: damage to plant, Foxtail, Giant (100=total damage to plant; 0=no damage to plant)
Outline: as §2

[10] = tested on: ivy-leaved morning glory (Ipomoea hederacea); experiment: Test G Post-Emergence Protocol; conditions: Ipomoea, post-emergence, 312 h; for pest or weed control at 15.625 g/ha: 15.625 g ai/ha, evaluated after 13 days (100=total damage to plant; 0=no damage to plant), read-out: Morningglory, Ivy-leaved damage rating; for pest or weed control at 62.5 g/ha: 62.5 g ai/ha, read-out: Morningglory, Ivy-leaved damage rating (100=total damage to plant; 0=no damage to plant); for pest or weed control at 62.5 g/ha / pest or weed control at 250 g/ha: evaluated after 13 days; for pest or weed control at 250 g/ha: 250 g ai/ha, read-out: damage to plant, Morningglory, Ivy-leaved (100=total damage to plant; 0=no damage to plant)
Outline: as §2

[11] = tested on: redroot pigweed (Amaranthus retroflexus); experiment: Test G Post-Emergence Protocol; conditions: Amaranthus retroflexus, post-emergence, 312 h; for pest or weed control at 15.625 g/ha: 15.625 g ai/ha, evaluated after 13 days (100=total damage to plant; 0=no damage to plant), read-out: Pigweed, Redroot damage rating; for pest or weed control at 62.5 g/ha: 62.5 g ai/ha, read-out: Pigweed, Redroot damage rating (100=total damage to plant; 0=no damage to plant); for pest or weed control at 62.5 g/ha / pest or weed control at 250 g/ha: evaluated after 13 days; for pest or weed control at 250 g/ha: 250 g ai/ha, read-out: damage to plant, Pigweed, Redroot (100=total damage to plant; 0=no damage to plant)
Outline: as §2

[12] = tested on: velvetleaf (Abutilon theophrasti); experiment: Test G Post-Emergence Protocol; conditions: Abutilon theophrasti, post-emergence, 312 h; for pest or weed control at 15.625 g/ha: 15.625 g ai/ha, evaluated after 13 days (100=total damage to plant; 0=no damage to plant), read-out: Velvetleaf damage rating; for pest or weed control at 62.5 g/ha: 62.5 g ai/ha, read-out: Velvetleaf damage rating (100=total damage to plant; 0=no damage to plant); for pest or weed control at 62.5 g/ha / pest or weed control at 250 g/ha: evaluated after 13 days; for pest or weed control at 250 g/ha: 250 g ai/ha, read-out: damage to plant, Velvetleaf (100=total damage to plant; 0=no damage to plant)
Outline: as §2

SMILES | pest or weed control at 15.625 g/ha [1] [%] | pest or weed control at 62.5 g/ha [1] [%] | pest or weed control at 250 g/ha [1] [%] | plant injury at 15.625 g/ha (corn (Zea mays) [2]) [%] | plant injury at 62.5 g/ha (corn (Zea mays) [2]) [%] | plant injury at 250 g/ha (corn (Zea mays) [2]) [%] | pest or weed control at 15.625 g/ha [3] [%] | pest or weed control at 62.5 g/ha [3] [%] | pest or weed control at 250 g/ha [3] [%] | pest or weed control at 15.625 g/ha [4] [%] | pest or weed control at 62.5 g/ha [4] [%] | pest or weed control at 250 g/ha [4] [%] | pest or weed control at 15.625 g/ha [5] [%] | pest or weed control at 62.5 g/ha [5] [%] | pest or weed control at 250 g/ha [5] [%] | pest or weed control at 15.625 g/ha [6] [%] | pest or weed control at 62.5 g/ha [6] [%] | pest or weed control at 250 g/ha [6] [%] | pest or weed control at 15.625 g/ha [7] [%] | pest or weed control at 62.5 g/ha [7] [%] | also measured
COc1ccc(CNC(=O)[C@H]2C(=O)N(C)C[C@@H]2c2ccc(C(F)(F)F)cc2)c(OC)c1 (racemic) [Compound 1479] | 0 | 0 | 10 | 0 | 0 | 0 | 0 | 20 | 20 | 0 | 0 | 0 | 0 | 0 | 0 | 0 | 0 | 10 | 0 | 20 | pest or weed control at 250 g/ha [7]: 20%; plant injury at 15.625 g/ha (corn (Zea mays) [8]): 10%; plant injury at 62.5 g/ha (corn (Zea mays) [8]): 10%; plant injury at 250 g/ha (corn (Zea mays) [8]): 10%; pest or weed control at 15.625 g/ha [9]: 0%; pest or weed control at 62.5 g/ha [9]: 20%; pest or weed control at 250 g/ha [9]: 0%; pest or weed control at 15.625 g/ha [10]: 0%; pest or weed control at 62.5 g/ha [10]: 0%; pest or weed control at 250 g/ha [10]: 0%; pest or weed control at 15.625 g/ha [11]: 0%; pest or weed control at 62.5 g/ha [11]: 0%; pest or weed control at 250 g/ha [11]: 20%; pest or weed control at 15.625 g/ha [12]: 0%; pest or weed control at 62.5 g/ha [12]: 0%; pest or weed control at 250 g/ha [12]: 0%
COc1cc([C@@H]2CN(C)C(=O)[C@H]2C(=O)Nc2cccc(F)c2F)ccn1 (racemic) [Compound 1480] | 30 | 80 | 90 | 20 | 30 | 80 | 40 | 90 | 90 | 0 | 0 | 70 | 0 | 0 | 40 | 0 | 0 | 10 | 50 | 70 | pest or weed control at 250 g/ha [7]: 80%; plant injury at 15.625 g/ha (corn (Zea mays) [8]): 20%; plant injury at 62.5 g/ha (corn (Zea mays) [8]): 20%; plant injury at 250 g/ha (corn (Zea mays) [8]): 60%; pest or weed control at 15.625 g/ha [9]: 60%; pest or weed control at 62.5 g/ha [9]: 70%; pest or weed control at 250 g/ha [9]: 70%; pest or weed control at 15.625 g/ha [10]: 0%; pest or weed control at 62.5 g/ha [10]: 0%; pest or weed control at 250 g/ha [10]: 20%; pest or weed control at 15.625 g/ha [11]: 0%; pest or weed control at 62.5 g/ha [11]: 0%; pest or weed control at 250 g/ha [11]: 10%; pest or weed control at 15.625 g/ha [12]: 0%; pest or weed control at 62.5 g/ha [12]: 0%; pest or weed control at 250 g/ha [12]: 20%
Cc1cc([C@@H]2CN(C)C(=O)[C@H]2C(=O)Nc2cccc(F)c2F)cc(Cl)n1 (racemic) [Compound 1481] | 20 | 40 | 80 | 30 | 30 | 60 | 40 | 60 | 90 | 0 | 0 | 10 | 0 | 0 | 20 | 0 | 0 | 10 | 30 | 60 | pest or weed control at 250 g/ha [7]: 70%; plant injury at 15.625 g/ha (corn (Zea mays) [8]): 20%; plant injury at 62.5 g/ha (corn (Zea mays) [8]): 20%; plant injury at 250 g/ha (corn (Zea mays) [8]): 60%; pest or weed control at 15.625 g/ha [9]: 40%; pest or weed control at 62.5 g/ha [9]: 60%; pest or weed control at 250 g/ha [9]: 70%; pest or weed control at 15.625 g/ha [10]: 0%; pest or weed control at 62.5 g/ha [10]: 10%; pest or weed control at 250 g/ha [10]: 80%; pest or weed control at 15.625 g/ha [11]: 0%; pest or weed control at 62.5 g/ha [11]: 0%; pest or weed control at 250 g/ha [11]: 20%; pest or weed control at 15.625 g/ha [12]: 0%; pest or weed control at 62.5 g/ha [12]: 0%; pest or weed control at 250 g/ha [12]: 10%
